In patent publication US20260115250A1, “METHODS OF TREATING AGE-RELATED MACULAR DEGENERATION” (Character Biosciences, Inc., priority 2022, published 2026):
Where two headings read alike, the source gives them in different places. Ends that are not written are not given here. Peptide text beside a SMILES is read from it.

Key:
LDLR = LDLR (Homo sapiens, UniProt P01130); assay: LDLR binding (SPR), high surfactant preparation
Method: The table shown in FIG. 23 illustrates LDLR binding data (SPR), using a high surfactant preparation. Recombinant LDLR was diluted in 10 mM acetate buffer pH 4.5 and amine coupled to a CM5 chip at 1000 RU. Peptides were diluted to 5 μM in running buffer (HBS-P+, 1 mM CaCl2) and serially diluted 1:3 for 5 total concentrations. Peptides were exposed to immobilized LDLR at a rate of […] for 120 seconds. Between cycles, the chip surface was regenerated with 3 injections of 50 mM NaOH/100 mM EDTA. Multi-Cycle Kinetics was performed on a Biacore Insight Evaluation Software and binding kinetics were analyzed with a 1:1 binding model.

[1] = DMPC solubility assay, 0.5 mM DMPC (turbidity reduction); assay type: biochemical; details: for DMPC solubilizing activity: FIGS. 2A-2D and 3A-3C; for EC50: 3.16-100 μM peptides, 15 minutes
Method: In this example, peptide stocks were diluted to 200 μM in H2O (a 2× solution) and 50 μL of peptide solution was transferred in triplicate into 96-well plates. A one mM solution of 1,2-dimyristoyl-sn-glycero-3-phosphocholine (DMPC) in H2O was prepared, and using a multichannel pipet, 50 μL DMPC solution was rapidly added to the plate. Peptide and lipid solutions were incubated at room temperature for 15 minutes with a final concentration of 100 μM peptides and 0.5 mM DMPC. After 15 minutes, absorbance was read on a plate reader at 405 nm. […] Data are presented as mean+SD over two runs.
In these experiments, DMPC solubility titration curves were generated. Peptide stocks were diluted to 200 μM in H2O (a 2× solution) and serially diluted in H2O over 4 concentrations, then 50 μL of peptide solutions were distributed in triplicate into 96-well plates. A 1 mM solution of 1,2-dimyristoyl-sn-glycero-3-phosphocholine (DMPC) in H2O was prepared, and using a multichannel pipet, 50 μL DMPC solution was rapidly added to the plate. Peptide and lipid solutions were incubated at room temperature for 15 minutes with final concentrations of 3.16-100 μM peptides and 0.5 mM DMPC. After 15 minutes, absorbance was read on a plate reader at 405 nm. […] Data are presented as mean+SD over two runs. Non-linear regression was used to calculate EC50 values.

[2] = high surfactant preparation (HBS-P+), 1:1 binding model, read-out: binding KD to LDLR

Sequence of LDLR (P01130 22-860): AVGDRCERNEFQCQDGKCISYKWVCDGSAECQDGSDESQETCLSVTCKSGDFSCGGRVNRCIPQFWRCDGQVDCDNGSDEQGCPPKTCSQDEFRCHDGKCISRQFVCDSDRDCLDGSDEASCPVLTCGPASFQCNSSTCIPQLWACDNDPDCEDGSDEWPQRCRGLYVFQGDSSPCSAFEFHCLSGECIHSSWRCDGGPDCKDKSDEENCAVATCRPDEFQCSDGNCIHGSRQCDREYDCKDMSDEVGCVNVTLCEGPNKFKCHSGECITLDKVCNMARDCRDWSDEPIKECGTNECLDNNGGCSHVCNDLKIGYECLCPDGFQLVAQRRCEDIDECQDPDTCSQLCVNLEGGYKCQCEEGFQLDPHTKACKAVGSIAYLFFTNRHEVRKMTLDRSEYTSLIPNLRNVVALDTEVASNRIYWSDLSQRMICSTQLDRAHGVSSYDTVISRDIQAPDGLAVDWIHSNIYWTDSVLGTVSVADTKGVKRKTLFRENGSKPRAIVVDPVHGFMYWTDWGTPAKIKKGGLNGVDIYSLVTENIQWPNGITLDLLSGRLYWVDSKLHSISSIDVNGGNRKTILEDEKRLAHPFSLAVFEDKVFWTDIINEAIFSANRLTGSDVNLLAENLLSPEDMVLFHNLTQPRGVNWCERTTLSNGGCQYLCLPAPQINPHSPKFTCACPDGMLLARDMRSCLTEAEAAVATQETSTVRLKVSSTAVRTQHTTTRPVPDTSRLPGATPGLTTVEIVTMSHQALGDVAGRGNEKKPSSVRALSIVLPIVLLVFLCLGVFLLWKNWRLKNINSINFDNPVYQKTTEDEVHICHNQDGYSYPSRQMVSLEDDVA

For `CC(C)C[C@H](NC(=O)[C@H](CCCNC(=N)N)NC(=O)[C@H](CCCCN)NC(=O)[C@H](CCC(N)=O)NC(=O)[C@H](CC(C)C)NC(=O)[C@H](CC(=O)O)NC(=O)[C@H](CC(=O)O)NC(=O)[C@H](C)NC(=O)[C@H](CC(=O)O)NC(=O)[C@H](CCCNC(=N)N)NC(=O)[C@H](CC(C)C)NC(=O)[C@H](CC(C)C)NC(=O)[C@H](CCCNC(=N)N)NC(=O)[C@H](CCCCN)NC(=O)[C@H](CCCNC(=N)N)NC(=O)[C@H](CC(C)C)NC(=O)[C@H](CCCCN)NC(=O)[C@H](CCCNC(=N)N)NC(=O)[C@H](CC(C)C)NC(=O)[C@@H](N)Cc1c[nH]cn1)C(=O)N[C@@H](C)C(=O)N[C@@H](CCC(=O)O)C(=O)N[C@@H](Cc1ccc(O)cc1)C(=O)N[C@@H](CCC(N)=O)C(=O)N[C@@H](C)C(=O)N[C@@H](CCCNC(=N)N)C(=O)N[C@@H](C)C(=O)N[C@@H](CCCCN)C(=O)N[C@@H](CCC(=O)O)C(=O)N[C@@H](C)C(=O)N[C@@H](Cc1ccccc1)C(=O)N[C@@H](CC(=O)O)C(=O)N[C@@H](CCCNC(=N)N)C(=O)O` [T-064] (H-HLRKLRKRLLRDADDLQKRLAEYQARAKEAFDR-OH), the Kd (LDLR; [2]) was < 10 µM.

For `CSCC[C@H](NC(=O)[C@H](CC(C)C)NC(=O)[C@H](CC(=O)O)NC(=O)[C@H](CCCCN)NC(=O)CNC(=O)[C@H](Cc1ccc(O)cc1)NC(=O)[C@H](CC(=O)O)NC(=O)[C@@H](NC(=O)[C@@H](NC(=O)[C@@H](NC(=O)[C@H](CCC(N)=O)NC(=O)[C@H](Cc1ccccc1)NC(=O)[C@H](Cc1ccc(O)cc1)NC(=O)[C@H](CCC(N)=O)NC(=O)[C@H](CO)NC(=O)[C@@H](NC(=O)[C@H](CC(C)C)NC(=O)[C@H](CO)NC(=O)[C@H](CCCNC(=N)N)NC(=O)[C@H](C)NC(=O)[C@H](CC(C)C)NC(=O)[C@H](CCCNC(=N)N)NC(=O)[C@H](CCCCN)NC(=O)[C@H](CCCNC(=N)N)NC(=O)[C@H](CC(C)C)NC(=O)[C@H](CCCCN)NC(=O)[C@H](CCCNC(=N)N)NC(=O)[C@H](CC(C)C)NC(=O)[C@H](Cc1c[nH]cn1)NC(=O)[C@H](CCCNC(=N)N)NC(=O)[C@H](C)NC(=O)[C@@H](N)CC(C)C)C(C)C)[C@@H](C)O)C(C)C)[C@@H](C)O)C(=O)O` [T-066] (H-LARHLRKLRKRLARSLVSQYFQTVTDYGKDLM-OH), the Kd (LDLR; [2]) was < 10 µM.

With `CC(C)C[C@H](NC(=O)[C@H](CCCNC(=N)N)NC(=O)[C@H](CC(=O)O)NC(=O)[C@H](CCC(N)=O)NC(=O)[C@H](CC(C)C)NC(=O)[C@H](CCCCN)NC(=O)[C@H](CC(=O)O)NC(=O)CNC(=O)[C@H](CC(=O)O)NC(=O)[C@H](CCCNC(=N)N)NC(=O)[C@H](CC(C)C)NC(=O)[C@H](CC(C)C)NC(=O)[C@H](CCCNC(=N)N)NC(=O)[C@H](CCCCN)NC(=O)[C@H](CCCNC(=N)N)NC(=O)[C@H](CC(C)C)NC(=O)[C@H](CCCCN)NC(=O)[C@H](CCCNC(=N)N)NC(=O)[C@H](CC(C)C)NC(=O)[C@@H](N)Cc1c[nH]cn1)C(=O)N[C@@H](C)C(=O)N[C@@H](CCC(=O)O)C(=O)N[C@@H](Cc1ccc(O)cc1)C(=O)N[C@@H](CCC(N)=O)C(=O)N[C@@H](C)C(=O)N[C@@H](CCCNC(=N)N)C(=O)N[C@@H](C)C(=O)N[C@@H](CCCNC(=N)N)C(=O)N[C@@H](CCC(=O)O)C(=O)N[C@@H](C)C(=O)N[C@@H](Cc1ccccc1)C(=O)N[C@@H](CC(=O)O)C(=O)N[C@@H](CCCNC(=N)N)C(=O)O` [T-055] (H-HLRKLRKRLLRDGDKLQDRLAEYQARAREAFDR-OH) the Kd (LDLR; [2]) was < 10 µM.

For `CC(C)C[C@H](NC(=O)[C@H](CCCNC(=N)N)NC(=O)[C@H](CC(=O)O)NC(=O)[C@H](CCC(N)=O)NC(=O)[C@H](CC(C)C)NC(=O)[C@H](CCCCN)NC(=O)[C@H](CC(=O)O)NC(=O)CNC(=O)[C@H](CC(=O)O)NC(=O)[C@H](CCCNC(=N)N)NC(=O)[C@H](Cc1ccccc1)NC(=O)[C@H](CC(C)C)NC(=O)[C@H](CCCNC(=N)N)NC(=O)[C@H](CCCCN)NC(=O)[C@@H](NC(=O)[C@H](CC(C)C)NC(=O)[C@H](CCCCN)NC(=O)[C@H](CCCNC(=N)N)NC(=O)[C@H](CC(C)C)NC(=O)[C@@H](N)Cc1c[nH]cn1)C(C)C)C(=O)N[C@@H](C)C(=O)N[C@@H](CCC(=O)O)C(=O)N[C@@H](Cc1ccc(O)cc1)C(=O)N[C@@H](CCC(N)=O)C(=O)N[C@@H](C)C(=O)N[C@@H](CCCNC(=N)N)C(=O)N[C@@H](C)C(=O)N[C@@H](CCCCN)C(=O)N[C@@H](CCC(=O)O)C(=O)N[C@@H](C)C(=O)N[C@@H](Cc1ccccc1)C(=O)N[C@@H](CC(=O)O)C(=O)N[C@@H](CCCNC(=N)N)C(=O)O` [T-059] (H-HLRKLVKRLFRDGDKLQDRLAEYQARAKEAFDR-OH), the Kd (LDLR; [2]) was < 10 µM.

With “T-099: therapeutic peptide (RRMKDYLKKFQETLKREFRDWE)” the DMPC solubilizing activity [1] was “did not have significant solubilizing activity”.

With `CC(C)C[C@H](NC(=O)[C@H](CCCNC(=N)N)NC(=O)[C@H](CC(=O)O)NC(=O)[C@H](CCC(N)=O)NC(=O)[C@H](CC(C)C)NC(=O)[C@H](CCCCN)NC(=O)[C@H](CC(=O)O)NC(=O)CNC(=O)[C@H](CC(=O)O)NC(=O)[C@H](CCCNC(=N)N)NC(=O)[C@H](CC(C)C)NC(=O)[C@H](CC(C)C)NC(=O)[C@H](CCCNC(=N)N)NC(=O)[C@H](CCCNC(=N)N)NC(=O)[C@H](CCCNC(=N)N)NC(=O)[C@H](CC(C)C)NC(=O)[C@H](CCCNC(=N)N)NC(=O)[C@H](CCCNC(=N)N)NC(=O)[C@H](CC(C)C)NC(=O)[C@@H](N)Cc1c[nH]cn1)C(=O)N[C@@H](C)C(=O)N[C@@H](CCC(=O)O)C(=O)N[C@@H](Cc1ccc(O)cc1)C(=O)N[C@@H](CCC(N)=O)C(=O)N[C@@H](C)C(=O)N[C@@H](CCCNC(=N)N)C(=O)N[C@@H](C)C(=O)N[C@@H](CCCCN)C(=O)N[C@@H](CCC(=O)O)C(=O)N[C@@H](C)C(=O)N[C@@H](Cc1ccccc1)C(=O)N[C@@H](CC(=O)O)C(=O)N[C@@H](CCCNC(=N)N)C(=O)O` [T-041] (H-HLRRLRRRLLRDGDKLQDRLAEYQARAKEAFDR-OH) the Kd (LDLR) was < 10 µM.

For `CC(C)C[C@H](NC(=O)[C@H](CCCNC(=N)N)NC(=O)[C@H](CC(=O)O)NC(=O)[C@H](CCC(N)=O)NC(=O)[C@H](CC(C)C)NC(=O)[C@H](CCCCN)NC(=O)[C@H](CC(=O)O)NC(=O)CNC(=O)[C@H](CC(=O)O)NC(=O)[C@H](CCCNC(=N)N)NC(=O)[C@H](CC(C)C)NC(=O)[C@H](CC(C)C)NC(=O)[C@H](CCCNC(=N)N)NC(=O)[C@H](CCCCN)NC(=O)[C@H](CCCNC(=N)N)NC(=O)[C@H](CC(C)C)NC(=O)[C@H](CCCCN)NC(=O)[C@H](CCCNC(=N)N)NC(=O)[C@H](CC(C)C)NC(=O)[C@@H](N)Cc1c[nH]cn1)C(=O)N[C@@H](C)C(=O)N[C@@H](CCC(=O)O)C(=O)N[C@@H](Cc1ccc(O)cc1)C(=O)N[C@@H](CCC(N)=O)C(=O)N[C@@H](C)C(=O)N[C@@H](CCCNC(=N)N)C(=O)N[C@@H](C)C(=O)N[C@@H](CCCCN)C(=O)N[C@@H](CCC(=O)O)C(=O)N[C@@H](C)C(=O)N[C@@H](Cc1ccccc1)C(=O)N[C@@H](CC(=O)O)C(=O)N[C@@H](CCCNC(=N)N)C(=O)O` [T-040] (H-HLRKLRKRLLRDGDKLQDRLAEYQARAKEAFDR-OH), the Kd (LDLR; [2]) was < 10 µM.

In the case of “T-017: therapeutic peptide (PLRAELQEGARQKLHELQEKLSPPLRAELQEGARQKLHELQEKLS)”, the DMPC solubilizing activity [1] is reported as “did not have significant solubilizing activity”.

Compound “HLRKLRKRLLRDGDKLQDRLAEYQAGAKEAFDR [T-054, therapeutic peptide]” has an EC50 [1] of 123 µM.

For “WKDFGERVERALREQFEDLGQSTEELRVRLASHLRKLRKRLLRDADDLQKRLAVYQA [T-113]”, the Kd (LDLR) was < 10 µM.

“HLRKLRKRLLRDADDLQDRLAEYQARAKEAFDR [T-063, therapeutic peptide]” showed an EC50 [1] of 111 µM.

For “T-024: therapeutic peptide (FEHWISGIYSECKHLIQE)”, the DMPC solubilizing activity [1] was “significant activity”.
